Source: PMC3101181, “Crystal Structures of T. b. rhodesiense Adenosine Kinase Complexed with Inhibitor and Activator: Implications for Catalysis and Hyperactivation” (PLoS Neglected Tropical Diseases, 2011)
Entries after “also recorded” stand apart in the source; their conditions may differ. Where two headings read alike, the source gives them in different places.

Experiments:
TbrAK [1] = biological target: T1, TbrAK (Trypanosoma brucei rhodesiense, UniProt Q584S0); experiment: Thermal stability assay (thermal unfolding by CD spectroscopy); assay type: binding; conditions: for Tm ± SD: TbrAK 13 µM, apo TbrAK 43.1±0.4, average of three experiments; for increase of TbrAK melting point when compound 1 was added: 50 µM
Experimental: Thermal unfolding of TbrAK was studied by CD spectroscopy as outlined elsewhere. […] TbrAK in a buffer containing 20 mM Hepes and 150 mM NaCl (pH 7.0) was kept constant at a final concentration of 0.5 mg/ml (13 µM). […] For evaluation of the CD spectra, the buffer spectrum was subtracted from the protein CD spectrum. All thermal unfolding curves were fitted to a two-state model that had been published recently. The mean of three independent experiments is reported.

[2] = biological target: TbrAK (adenosine kinase of T. b. rhodesiense) (Trypanosoma brucei rhodesiense, UniProt Q584S0); experiment: TbrAK activity assay (HPLC, ADP/ATP ratio); assay type: biochemical; conditions: n.e. = no effect; for EC50 / potency EC50 (TbrAK activation): compound range 1–2000 µM, average of three experiments, neither activator nor inhibitor; for EC50: read-out: potency EC50 (TbrAK activation); for efficacy increase (TbrAK activation): efficacy of TbrAK in absence of compound taken as reference
Experimental: The activation potential of a series of compound 1 derivatives (compounds 2–7) was measured using a recently developed HPLC method. The resulting ADP/ATP ratios were calculated and used as a measure of activity. For comparative reasons the activity recorded in absence of compound was set to 100%. The mean of three independent measurements is reported.

TbrAK [3] = biological target: T1, TbrAK; experiment: Isothermal titration calorimetry (ITC); assay type: binding
Experimental: Binding affinity constants for adenosine and ATP were determined using isothermal titration calorimetry (ITC). To this end, TbrAK was dialyzed into a buffer consisting of 20 mM Tris, 150 mM NaCl, and 5% glycerol (pH 7.5) and used at concentrations around 90 µM. The ligands were dissolved directly into the dialysis buffer to give a final concentration of around 2 mM. All solutions were filtered and thoroughly degassed before use. A typical titration experiment consisted of a first control injection of 1 µl followed by 50 to 60 injections, each of 5 µl (20 s duration), using a 4 min interval. Raw data were collected, corrected for ligand heats of dilution, integrated and fitted to the appropriate binding model using the Microcal Origin software supplied with the instrument. The measurements were performed in duplicate.

[4] = system: Trypanosoma brucei rhodesiense; set-up: method as in PMID 19707572, PMID 17949068; conditions: read-out: IC50 towards Trypanosoma brucei rhodesiense; cited from earlier work
[5] = set-up: method as in PMID 19707572, PMID 17949068; conditions: cited from earlier work
TbrAK [6] = biological target: T1, TbrAK; conditions: ITC; cited from earlier work
[7] = AP5A, adenosine, ATP at 500 µM, compound 1 at 50 µM

Sequence of TbrAK (adenosine kinase of T. b. rhodesiense) (Q584S0 entry or part of it): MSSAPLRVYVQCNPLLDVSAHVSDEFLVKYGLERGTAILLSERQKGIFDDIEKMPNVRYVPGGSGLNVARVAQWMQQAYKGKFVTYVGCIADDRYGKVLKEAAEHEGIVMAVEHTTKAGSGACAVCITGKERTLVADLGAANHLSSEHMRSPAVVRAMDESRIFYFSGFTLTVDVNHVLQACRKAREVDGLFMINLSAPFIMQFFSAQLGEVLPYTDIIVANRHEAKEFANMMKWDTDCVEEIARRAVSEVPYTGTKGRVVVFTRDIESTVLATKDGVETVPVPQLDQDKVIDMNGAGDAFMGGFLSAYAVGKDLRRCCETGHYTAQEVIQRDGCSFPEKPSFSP
T1 sequence (Q584S0 entry or part of it): as above

SMILES	Tm ± SD (TbrAK [1]; [7]) [°C]	EC50 [2] [µM]	efficacy increase (TbrAK activation) [2]	other results
Nc1ncnc2c1ncn2[C@@H]1O[C@H](COP(=O)(O)OP(=O)(O)OP(=O)(O)OP(=O)(O)OP(=O)(O)OC[C@H]2O[C@@H](n3cnc4c(N)ncnc43)[C@H](O)[C@@H]2O)[C@@H](O)[C@H]1O [AP5A, P^1,P^5-di(adenosine-5′)-pentaphosphate]	50.5±0.2	–	–	Δ Tm (TbrAK [1]; shift versus apo TbrAK (43.1°C), AP5A, adenosine, ATP at 500 µM, compound 1 at 50 µM): 7.4 °C
CCc1ccc(-c2cc(C3CCOCC3)[nH]n2)cc1 [compound 3, 3-(4-ethylphenyl)-5-(tetrahydropyran-4-yl)-1H-pyrazole]	–	168	2.5 fold	–
O=[N+]([O-])c1ccc(Oc2ccc(-c3cc(N4CCOCC4)[nH]n3)cc2)cc1 [compound 7, 4-{5-[4-(4-nitrophenoxy)phenyl]-2H-pyrazol-3-yl}morpholine]	–	–	loses all activation capacity; also recorded: n.e. ^c	potency EC50 (TbrAK activation) [2]: n.e.
Nc1ncnc2c1ncn2[C@@H]1O[C@H](CO)[C@@H](O)[C@H]1O [adenosine]	50.7±0.2	–	–	Kd (TbrAK [3]): 1.3 ± 0.3 µM; n (molar ratio, single site) (TbrAK [3]; in presence of compound 1 (150 µM)): 0.9±0.1; ΔHbind, single binding site (TbrAK [3]; in presence of compound 1 (150 µM), single-site binding model): -15.5 ± 0.2 kcal/mol; Kd (TbrAK [3]; read-out: KD, low affinity binding site, two-sites non-interacting binding model, mean of two experiments): 27.6 ± 1.1 µM; n1 (molar ratio, high affinity site) (TbrAK [3]; two-sites model): 0.9±0.1; n2 (molar ratio, low affinity site) (TbrAK [3]; two-sites model): 0.8±0.1
c1ccc(Oc2ccc(-c3cc(C4CCOCC4)[nH]n3)cc2)cc1 [compound 2, 3-(4-phenoxyphenyl)-5-(tetrahydropyran-4-yl)-1H-pyrazole]	–	25.4	2.0 fold	–
Nc1ncnc2c1ncn2[C@@H]1O[C@H](COP(=O)(O)OP(=O)(O)OP(=O)(O)O)[C@@H](O)[C@H]1O [ATP, adenosine triphosphate]	42.8±0.1	–	–	–
c1ccc(Oc2ccc(-c3cc(CN4CCOCC4)[nH]n3)cc2)cc1 [compound 5, 4-[5-(4-phenoxyphenyl)-2H-pyrazol-3-ylmethyl]morpholine]	–	195	1.5 fold	–
c1ccc(Oc2ccc(-c3cc(N4CCOCC4)on3)cc2)cc1 [compound 6, 4-[3-(4-phenoxyphenyl)isoxazol-5-yl]morpholine]	–	–	loses all activation capacity; also recorded: n.e. ^c	potency EC50 (TbrAK activation) [2]: n.e. ^c
Clc1ccc(-c2cc(N3CCOCC3)[nH]n2)cc1 [compound 4, 4-[5-(4-chlorophenyl)-2H-pyrazol-3-yl]morpholine]	–	135	2.0 fold	–
c1ccc(Oc2ccc(-c3cc(N4CCOCC4)[nH]n3)cc2)cc1 [compound 1, 4-[5-(4-phenoxyphenyl)-2H-pyrazol-3-yl]morpholine]	47.9±0.1	–	3.5 fold	increase of TbrAK melting point when compound 1 was added (TbrAK [1]; in presence of adenosine): 0.4 °C; increase of TbrAK melting point when compound 1 was added (TbrAK [1]; in presence of both adenosine and ATP): 0.7 °C; IC50 [4]: 1 µM; cytotoxicity [5]: low cytotoxicity; number of binding sites on TbrAK (TbrAK [6]): two binding sites
